From PMC10889512, “Pyrimidine Schiff Bases: Synthesis, Structural Characterization and Recent Studies on Biological Activities” (International Journal of Molecular Sciences, 2024)

Columns and labels:
Format in all cases: cell-based, human
AGS [1] = experiment: Neutral red uptake assay on AGS; conditions: 72 h treatment
Description: Based on the results obtained for the RPTEC cell line, the following concentrations of 4b–d were chosen to be applied to neoplastic cell lines: 0.1, 1, 10, 25, 50, and 100 µM. A172, AGS, CaCo-2, HeLa, and HepG2 cancer cell lines were used to perform a neutral red uptake assay. The obtained results were compared with a negative control (cell lines incubated without tested compounds), and half-maximal inhibitory concentration (IC50) values were calculated. Cell lines were plated in 96-well plates at a density of 1 × 10^4 cells/well. After 24 h incubation, which allowed the cells to attach and start to proliferate, the culture media were replaced with 4a–d dissolved in the appropriate medium at concentrations of 1, 10, 50, 100, 150 and 200 µM. […] Negative (1% DMSO in medium) and positive (1 µM staurosporine) controls were also included. Plates were incubated at 37 °C for 24, 48, and 72 h before the neutral red uptake assay. The neutral red uptake assay was performed as described by Repetto et al.. Briefly, the medium from all wells was discarded, the attached cells were washed with 100 µL PBS, and then 100 µL of neutral red working solution in medium (40 µg/mL) was added to each well. The neutral red solution was incubated overnight in the same conditions as the cells and centrifuged before being added to the cells. The plates were incubated for at least 2 h at 37 °C, 5% CO2, in a humidified atmosphere. Next, the neutral red medium was removed, and the cells were washed with 100 µL PBS. A 100 µL quantity of destain solution consisting of 50% ethanol, 1% glacial acetic acid, and deionized water was added to each well. Plates were incubated for 30 min with constant shaking on a horizontal shaker at 37 °C. Absorption was measured at 540 nm excitation. The cells’ viability was calculated by comparing results from experimental sets with negative controls according to the formula: % viability=ODtest substance−ODblind/ODnegative control−ODblind×100

A172 = experiment: Microscopic observations, Hoechst 33342 stain, A172; conditions: A172, at IC50, 24, 48 and 72 h
Description: (§1) In order to obtain information about cells and nuclei morphology, fluorescence microscopy was used. Briefly, after the incubation of A172 and AGS with compound 4b (at three time periods, namely 24, 48, and 72 h) cells were stained with Hoechst 33342 dye, which binds to DNA. Phase-contrast observations were also performed. […] Also, the cell membrane should be intact with a visible halo around the cells. In necrotic cells, the nuclei edges tend to be less clearly defined, and Hoechst 33342 results in a decreased fluorescence signal. This effect can be seen in a1,2 (A172) and b1,2 (AGS). […] To visualize morphological changes which occurred in the treated cells, microscopic observations were conducted using Hoechst 33342 stain. It is a blue fluorescent stain which allows observations of nuclei in eukaryotic cells. Also observations in bright fields were performed. Cells were stained according to the manufacturer’s protocol. Briefly, cells were plated in 12-well plates at a density of 1 × 10^5 cells/well and were incubated for 24 h at 37 °C, 5% CO2 in a humidified atmosphere. Next, cells were treated with 4b at an IC50 and further incubated for 24, 48, and 72 h. For microscopic observations cells were collected, washed with PBS and stained for 15 min with 1 µg/mL Hoechst 33342 dye. […]

AGS [2] = experiment: Microscopic observations, Hoechst 33342 stain, AGS; conditions: at IC50, 24, 48 and 72 h
Description: as §1

A172 cell line = experiment: Comet assay (single-cell gel electrophoresis), A172
Description: Single-cell gel electrophoresis was performed to assess the potential genotoxic effect on AGS and A172 after incubation with compound 4b at IC50. This method is based on the ability of damaged DNA to migrate out of the cell during electrophoresis. After DNA staining (Hoechst 33342), the characteristic “comet tail” could be observed under the fluorescence microscope. The damages in 100 randomly selected cells were visually classified into five groups according to the length of the “comet tail”. Group 0 consisted of cells without damaged DNA, while group 4 contained cells with maximally long tails. Based on this, a group damage index (DI) was calculated. The genotoxic effect was found in both examined cell lines. In the case of the A172 cell line, the DNA degradation level seemed to be independent of the incubation time with compound 4b (DNA damage index (DDI) between 77 and 85 over three incubation periods), whereas for AGS cells, genotoxicity was induced in a time-dependent manner (DDI 63, 107, and 111 after 24, 48, and 72 h, respectively).
The comet assay was performed according to the method of Singh et al. with slight modifications. Slides sterilized in 70% ethanol microscope were covered with thin layer of 1% normal melting agarose and left to solidify in a low-humidity environment. Cells were plated in 12-well plates at a density of 1 × 10^5 cells/well and incubated for 24 h in a cell incubator. Next, compound 4b was added in concentrations equal to the IC50 values obtained after the neutral red uptake assay. After 24, 48, and 72 h incubation, cells were harvested, centrifuged, and resuspended in PBS. […] A total of 100 randomly selected cells were scored, and captured comets were classified based on the comet’s tail length as follows: class 0 contained comets with no damaged DNA; class 1, those with low damage; class 2, those with medium damage; class 3, those with high damage; and class 4, those with very high damage. The damage index (DI) was calculated as follows: DI=0×n0+1×n1+2×n2+3×n3+4×n4, n0,1,2,3,4 —the amount of comets in each class.

## Cc1nc(-c2ccccc2)nc(Nc2ccc(F)cc2)c1C=Nc1cccc(Cl)c1 [compound 4b, 5-{[(3-chlorophenyl)imino]methyl}-N-(4-fluorophenyl)-6-methyl-2-phenylpyrimidin-4-amine]
AGS [1]
  IC50: 32.2 µM
AGS [1]; Homo sapiens, 72 h
  IC50: 32.2 µM
A172
  cell and nuclei morphology: leads to necrosis
AGS [2]
  cell and nuclei morphology: leads to necrosis
A172 cell line; A172, at IC50, 24 h
  DNA damage index: 77 arbitrary units
A172 cell line; A172, at IC50, 48 h
  DNA damage index: 85 arbitrary units
A172 cell line; A172, at IC50, 72 h
  DNA damage index: 78 arbitrary units
